Each compound was assayed on YAP/TAZ-TEAD transcription (assay: Reporter gene assay for measuring the inhibition of YAP/TAZ-TEAD transcription (TEAD-responsive element luciferase reporter in Hek293T cells)). Settings: 24 hours incubation.
Format: cell-based
Experimental: Example 56: Activity of Compounds of the Disclosure in a Reporter Gene Assay for Measuring the Inhibition of YAP/TAZ-TEAD Transcription
Hek293T cells were cultured in DMEM supplemented with 10% fetal bovine serum, Sodium pyruvate, Sodium bicarbonate, L-glutamine. The cells were harvested and transiently transfected with TEAD-responsive element luciferase reporter. Transfected cells were plated in 384-well plate containing pre-diluted compounds. After 24 hours incubation at 37° C./5% CO2, assay plates were cooled to room temperature and levelled to an equal volume per well, prior to the addition of 25 uL luciferase substrate SteadyLite (Perkin Elmer)/well. The plate was shaken for 10 min at 600 rpm, centrifuged for 1 min at 500 rpm and measured with an Envision reader (PerkinElmer). The amount of relative light units produced by the TEAD reporter was used to calculate the percentage of inhibition.
The percent of reporter inhibition was calculated in the presence of a positive control inhibitor (100% inhibition) versus a condition with the presence of the vehicle basal activity of the reporter (0% inhibition). The ability of a test compound to inhibit this activity was determined as: Percentage inhibition=[[…]((RLU determined in the presence of vehicle−RLU determined for sample with test compound present) divided by (RLU determined in the presence of vehicle−RLU determined for sample with positive control inhibitor))]*100.
The activities of example compounds tested are depicted in Table 3. The activity ranges A, B and C refer to IC50 values in the reporter gene assay as follows: “A”: IC50<1 μM; “B”: 1 μM≤IC50≤10 μM and “C”: IC50>10 μM; NT=not tested.

SMILES	IC50 [µM]
CC(=O)N1CCN2c3ccccc3N(c3ccc(C(F)(F)F)cc3)CC2C1 (single isomer, unassigned) [15-En1, (R)- or (S)-1-(6-(4-(trifluoromethyl)phenyl)-1,2,4,4a,5,6-hexahydro-3H-pyrazino[1,2-a]quinoxalin-3-yl)ethan-1-one]	1 to 10
CC(=O)N1CCN2c3ncccc3N(c3ccc(C(F)(F)F)cc3)CC2C1 (single isomer, unassigned) [29-En2, (R)- or (S)-1-(5-(4-(trifluoromethyl)phenyl)-5,6,6a,7,9,10-hexahydro-8H-pyrazino[1,2-a]pyrido[3,2-e]pyrazin-8-yl)ethan-1-one]	< 1
CNS(=O)(=O)N1CCN2c3ccccc3N(c3ccc(C(F)(F)F)cc3)CC2C1 (single isomer, unassigned) [32-En1, (R)- or (S)-N-methyl-6-(4-(trifluoromethyl)phenyl)-1,2,4,4a,5,6-hexahydro-3H-pyrazino[1,2-a]quinoxaline-3-sulfonamide]	< 1
CC(=O)NCC1CN(c2ccc(C(F)(F)F)cc2)c2ccccc2N1 (single isomer, unassigned) [34-En1, (R)- or (S)-N-((4-(4-(trifluoromethyl)phenyl)-1,2,3,4-tetrahydroquinoxalin-2-yl)methyl)acetamide]	< 1
CC(=O)N1CCN2c3nccnc3N(c3ccc(C(F)(F)F)cc3)CC2C1 (single isomer, unassigned) [40-En2, (R)- or (S)-1-(5-(4-(trifluoromethyl)phenyl)-5,6,6a,7,9,10-hexahydro-8H-dipyrazino[1,2-a:2′,3′-e]pyrazin-8-yl)ethan-1-one]	1 to 10
C=CC(=O)N1CCN2C(C1)CN(c1ccc(C(F)(F)F)cc1)C1CCC12 (single isomer, unassigned) [42(Dia2), 1-(3-(4-(trifluoromethyl)phenyl)decahydro-6H-cyclobuta[e]pyrazino[1,2-a]pyrazin-6-yl)prop-2-en-1-one]	< 1
CNS(=O)(=O)N1CCN2c3ncccc3N(c3ccc(C(F)(F)F)cc3)CC2C1 (single isomer, unassigned) [45-En1, (R)- or (S)-N-methyl-5-(4-(trifluoromethyl)phenyl)-5,6,6a,7,9,10-hexahydro-8H-pyrazino[1,2-a]pyrido[3,2-e]pyrazine-8-sulfonamide]	< 1
CC(C)C(=O)N1CCN2c3ncccc3N(c3ccc(C(F)(F)F)cc3)CC2C1 (single isomer, unassigned) [47-En2, (R)- or (S)-2-methyl-1-(5-(4-(trifluoromethyl)phenyl)-5,6,6a,7,9,10-hexahydro-8H-pyrazino[1,2-a]pyrido[3,2-e]pyrazin-8-yl)propan-1-one]	< 1
CNC(=O)N1CCN2c3ncccc3N(c3ccc(C(F)(F)F)cc3)CC2C1 (single isomer, unassigned) [52-En1, (R)- or (S)-N-methyl-5-(4-(trifluoromethyl)phenyl)-5,6,6a,7,9,10-hexahydro-8H-pyrazino[1,2-a]pyrido[3,2-e]pyrazine-8-carboxamide]	< 1
CC(=O)N1CC(=O)N2c3ccccc3N(c3ccc(C(F)(F)F)cc3)CC2C1 (single isomer, unassigned) [79-En1, (R)- or (S)-3-acetyl-6-(4-(trifluoromethyl)phenyl)-2,3,4,4a,5,6-hexahydro-1H-pyrazino[1,2-a]quinoxalin-1-one]	> 10
CC(=O)N1CC(=O)N2c3ccccc3N(c3ccc(C(F)(F)F)cc3)CC2C1 (single isomer, unassigned) [79-En2, (R)- or (S)-3-acetyl-6-(4-(trifluoromethyl)phenyl)-2,3,4,4a,5,6-hexahydro-1H-pyrazino[1,2-a]quinoxalin-1-one]	< 1
FC(F)(F)c1ccc(N2CC3CC(c4nnn[nH]4)CCN3c3ccccc32)cc1 (single isomer, unassigned) [121-D2, 8-(1H-tetrazol-5-yl)-5-(4-(trifluoromethyl)phenyl)-6,6a,7,8,9,10-hexahydro-5H-pyrido[1,2-a]quinoxaline]	< 1
FC(F)(F)c1ccc(N2CC3CC(c4nnn[nH]4)CCN3c3ccccc32)cc1 (single isomer, unassigned) [121-D3, 8-(1H-tetrazol-5-yl)-5-(4-(trifluoromethyl)phenyl)-6,6a,7,8,9,10-hexahydro-5H-pyrido[1,2-a]quinoxaline]	1 to 10
FC(F)(F)c1ccc(N2CC3CC(c4nnn[nH]4)CCN3c3ccccc32)cc1 (single isomer, unassigned) [121-D4, 8-(1H-tetrazol-5-yl)-5-(4-(trifluoromethyl)phenyl)-6,6a,7,8,9,10-hexahydro-5H-pyrido[1,2-a]quinoxaline]	< 1
C=CC(=O)N1CCN2c3ncccc3N(c3ccc(C(F)(F)F)cc3)CC2C1 (stereo not shown) [28-En2, 1-(5-(4-(trifluoromethyl)phenyl)-5,6,6a,7,9,10-hexahydro-8H-pyrazino[1,2-a]pyrido[3,2-e]pyrazin-8-yl)prop-2-en-1-one]	< 1

Results, then the compound that gave them:

IC50 [µM]	SMILES
< 1	CC(=O)NCC1CN(c2ccc(C(F)(F)F)cc2)c2ccccc2O1 (single isomer, unassigned) [36-En2, (R)- or (S)-N-((4-(4-(trifluoromethyl)phenyl)-3,4-dihydro-2H-benzo[b][1,4]oxazin-2-yl)methyl)acetamide]
1 to 10	CC(=O)NCC1CN(c2ccc(C(F)(F)F)cc2)c2cccnc2O1 (single isomer, unassigned) [49-En2, (R)- or (S)-N-((1-(4-(trifluoromethyl)phenyl)-2,3-dihydro-1H-pyrido[2,3-b][1,4]oxazin-3-yl)methyl)acetamide]
> 10	COc1ccc2c(n1)OC(CNC(C)=O)CN2c1ccc(C(F)(F)F)cc1 (single isomer, unassigned) [73-En1, (R)- or (S)-N-((6-methoxy-1-(4-(trifluoromethyl)phenyl)-2,3-dihydro-1H-pyrido[2,3-b][1,4]oxazin-3-yl)methyl)acetamide]
< 1	COc1ccc2c(n1)OC(CNC(C)=O)CN2c1ccc(C(F)(F)F)cc1 (single isomer, unassigned) [73-En2, (R)- or (S)-N-((6-methoxy-1-(4-(trifluoromethyl)phenyl)-2,3-dihydro-1H-pyrido[2,3-b][1,4]oxazin-3-yl)methyl)acetamide]
> 10	CC(=O)NCC1CN(c2ccc(C(F)(F)F)cc2)c2cc(Cl)cnc2O1 (single isomer, unassigned) [75-En1, (R)- or (S)-N-((7-chloro-1-(4-(trifluoromethyl)phenyl)-2,3-dihydro-1H-pyrido[2,3-b][1,4]oxazin-3-yl)methyl)acetamide]
< 1	CC(=O)NCC1CN(c2ccc(C(F)(F)F)cc2)c2ccc(C)nc2O1 (single isomer, unassigned) [77-En2, (R)- or (S)-N-((6-methyl-1-(4-(trifluoromethyl)phenyl)-2,3-dihydro-1H-pyrido[2,3-b][1,4]oxazin-3-yl)methyl)acetamide]
< 1	CC(=O)NCC1CN(c2ccc(C(F)(F)F)cc2)c2ccc(C3CC3)nc2O1 (single isomer, unassigned) [81-En2, (R)- or (S)-N-((6-cyclopropyl-1-(4-(trifluoromethyl)phenyl)-2,3-dihydro-1H-pyrido[2,3-b][1,4]oxazin-3-yl)methyl)acetamide]
< 1	CC(=O)NCC1CN(c2ccc(C(F)(F)F)cc2)c2ccc(N(C)C)nc2O1 (single isomer, unassigned) [87-En2, (R)- or (S)-N-((6-(dimethylamino)-1-(4-(trifluoromethyl)phenyl)-2,3-dihydro-1H-pyrido[2,3-b][1,4]oxazin-3-yl)methyl)acetamide]

Same assay, conditions: Homo sapiens, HEK-293T, 24 h, 24 hours incubation

SMILES	IC50 [µM]
C=CC(=O)N1CCN2C(C1)CN(c1ccc(C(F)(F)F)cc1)C1CCC12 (single isomer, unassigned) [42(Dia1), 1-(3-(4-(trifluoromethyl)phenyl)decahydro-6H-cyclobuta[e]pyrazino[1,2-a]pyrazin-6-yl)prop-2-en-1-one]	< 1
O=C(O)C1CCN2c3ncccc3N(c3ccc(C(F)(F)F)cc3)CC2C1 (single isomer, unassigned) [96A, (cis)- or (trans)-5-(4-(trifluoromethyl)phenyl)-6,6a,7,8,9,10-hexahydro-5H-dipyrido[1,2-a:3′,2′-e]pyrazine-8-carboxylic acid]	< 1
C=CC(=O)N1CCN2c3ncccc3N(c3ccc(C(F)(F)F)cc3)CC2C1 (stereo not shown) [28-En1, 1-(5-(4-(trifluoromethyl)phenyl)-5,6,6a,7,9,10-hexahydro-8H-pyrazino[1,2-a]pyrido[3,2-e]pyrazin-8-yl)prop-2-en-1-one]	< 1

More lines, now with the values ahead:

IC50 [µM]	SMILES
1 to 10	CC(=O)NCC1CN(c2ccc(C(F)(F)F)cc2)c2ccc(C#N)nc2O1 (single isomer, unassigned) [99-En1 or 99-En2, (R)- or (S)—N-((6-cyano-1-(4-(trifluoromethyl)phenyl)-2,3-dihydro-1H-pyrido[2,3-b][1,4]oxazin-3-yl)methyl)acetamide]
< 1	CC(=O)NCC1CN(c2ccc(C(F)(F)F)cc2)c2ccc(Br)nc2O1 (single isomer, unassigned) [compound 122, (R)- or (S)—N-((6-bromo-1-(4-(trifluoromethyl)phenyl)-2,3-dihydro-1H-pyrido[2,3-b][1,4]oxazin-3-yl)methyl)acetamide]

Source: patent publication US20240409556A1, “BENZOPIPERAZINE AND RELATED ANALOGS FOR INHIBITING YAP/TAZ-TEAD” (Springworks Therapeutics, Inc., priority 2023, published 2024)
